Like-named read-outs stand apart in the source and are kept apart here.
Legend:
all MMPs tested = conditions: read-out: IC50's on all MMPs tested; cited from earlier work
MMP-2 = target: T1, MMP-2 (Homo sapiens, UniProt P08253); experiment: MMP enzymatic assay (Trupoint peptide), MMP-2; format: biochemical
T1 construct: Human MMP-2 full length (aa 1-660)
T1 sequence (P08253 30-660): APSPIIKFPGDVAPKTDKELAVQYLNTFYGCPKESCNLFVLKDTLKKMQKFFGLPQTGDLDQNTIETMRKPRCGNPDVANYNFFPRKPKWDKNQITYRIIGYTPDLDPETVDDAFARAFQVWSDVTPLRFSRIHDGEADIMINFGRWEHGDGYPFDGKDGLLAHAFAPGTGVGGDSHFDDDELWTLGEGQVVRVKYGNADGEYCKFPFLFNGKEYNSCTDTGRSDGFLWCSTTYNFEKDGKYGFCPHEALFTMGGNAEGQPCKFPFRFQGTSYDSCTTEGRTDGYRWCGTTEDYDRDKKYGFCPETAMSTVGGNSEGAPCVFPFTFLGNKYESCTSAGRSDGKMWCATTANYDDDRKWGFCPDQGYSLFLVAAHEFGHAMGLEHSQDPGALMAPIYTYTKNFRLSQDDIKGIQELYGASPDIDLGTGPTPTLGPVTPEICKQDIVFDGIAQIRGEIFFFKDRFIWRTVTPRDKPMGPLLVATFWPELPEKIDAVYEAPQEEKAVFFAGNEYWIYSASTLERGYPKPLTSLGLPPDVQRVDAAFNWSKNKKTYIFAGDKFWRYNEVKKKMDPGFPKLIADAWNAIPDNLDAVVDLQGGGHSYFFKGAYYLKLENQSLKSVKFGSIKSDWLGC

MMP-9 = target: T2, MMP-9 (Homo sapiens, UniProt P14780); experiment: MMP enzymatic assay (Trupoint peptide), MMP-9; format: biochemical
T2 construct: Human MMP-9 catalytic domain (aa 107-446)
T2 sequence (P14780 107-446): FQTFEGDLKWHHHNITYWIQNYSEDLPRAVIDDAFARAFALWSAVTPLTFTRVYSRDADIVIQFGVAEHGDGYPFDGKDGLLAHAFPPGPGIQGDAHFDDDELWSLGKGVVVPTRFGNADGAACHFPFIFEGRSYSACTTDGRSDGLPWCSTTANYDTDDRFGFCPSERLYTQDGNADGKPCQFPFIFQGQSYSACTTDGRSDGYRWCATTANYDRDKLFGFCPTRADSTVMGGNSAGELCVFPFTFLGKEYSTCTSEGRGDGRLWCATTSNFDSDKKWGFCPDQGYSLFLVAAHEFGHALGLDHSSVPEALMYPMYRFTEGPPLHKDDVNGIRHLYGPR

| Compound | IC50 (MMP-2) [nM] | IC50 (MMP-9) [nM] | IC50 (all MMPs tested) [nM] | IC50 (MMP-2; read-out: MMP-2 nM IC50) [nM] |
| --- | --- | --- | --- | --- |
| CNC(=O)[C@H](Cc1c[nH]c2ccccc12)NC(=O)[C@H](Cc1ccccc1)C1OCCN(O)C1=O (stereo partly shown) | – | – | 20100 to 104000 | – |
| O=C1[C@H](NS(=O)(=O)c2ccc(Br)s2)CC=CCN1O [Compound 16, 5-Bromo-thiophene-2-sulfonic acid (1-hydroxy-2-oxo-2,3,4,7-tetrahydro-1H-azepin-3-(R)-yl)-amide] | 43 | 28.4 | – | – |
| CC1=CC[C@@H](NS(=O)(=O)c2ccc(Oc3ccc(Cl)cc3)cc2)C(=O)N(O)C1 [Compound 20, (R)-4-(4-Chloro-phenoxy)-N-(1-hydroxy-6-methyl-2-oxo-2,3,4,7-tetrahydro-1H-azepin-3-yl)-benzenesulfonamide] | 0.72 | 0.68 | – | – |
| COc1ccc(-c2ccc(S(=O)(=O)Cn3cccc(O)c3=O)cc2)cc1 [Compound 67, 3-Hydroxy-1-(4′-methoxy-biphenyl-4-sulfonylmethyl)-1H-pyridin-2-one] | > 10000 | > 10000 | – | – |
| O=C1C(S(=O)(=O)c2ccc(-c3nc4cc(F)ccc4[nH]3)cc2)CCCCN1O (stereo not shown) [Compound 78, 3-[4-(5-Fluoro-1H-benzoimidazol-2-yl)-benzenesulfonyl]-1-hydroxy-azepan-2-one] | – | 846 | – | 377 |
| CS(=O)(=O)N(Cc1cccn(O)c1=O)c1ccc(Oc2ccc(OC(F)(F)F)cc2)cc1 [Compound 54, N-(1-Hydroxy-2-oxo-1,2-dihydro-pyridin-3-ylmethyl)-N-[4-(4-trifluoro-methoxy-phenoxy)-phenyl]-methanesulfonamide] | 466 | 11.1 | – | – |

Now from value to compound, other results behind:

| IC50 (MMP-2) [nM] | IC50 (MMP-9) [nM] | Compound | IC50 (all MMPs tested) [nM] | IC50 (MMP-2; read-out: MMP-2 nM IC50) [nM] |
| --- | --- | --- | --- | --- |
| > 1000 | > 1000 | COc1ccc(S(=O)(=O)Cc2cccn(O)c2=O)cc1 [Compound 96] | – | – |
| 547 | 116 | Cc1ccc(Oc2ccc(N(Cc3cc(Br)cn(O)c3=O)S(C)(=O)=O)cc2)cc1 [Compound 49, N-(5-Bromo-1-hydroxy-2-oxo-1,2-dihydro-pyridin-3-ylmethyl)-N-(4-p-tolyloxy-phenyl)-methanesulfonamide] | – | – |
| > 1000 | > 1000 | O=C1[C@H](NS(=O)(=O)Cc2ccc(Cl)cc2)CC=CCN1O [Compound 15, (4-Chloro-phenyl)-N-(1-hydroxy-2-oxo-2,3,4,7-tetrahydro-1H-azepin-3-(R)-yl)-methanesulfonamide] | – | – |
| 1.07 | 1.76 | O=C1[C@H](NS(=O)(=O)c2ccc(Oc3ccccc3)cc2)CC=CCN1O [Compound 3, N-(1-Hydroxy-2-oxo-2,3,4,7-tetrahydro-1H-azepin-3-(R)-yl)-4-phenoxy-benzenesulfonamide] | – | – |
